Test results reported in patent US9663476B2, “Glycine transporter-1 inhibitors” (AMGEN INC., priority 2006, dated 2017).
Where a name gives a salt, the structure may show the parent alone.

Molecular target: T1, human glycine transporter type 1 (Gly-T1) (Homo sapiens, UniProt P48067)
T1 construct: JAR) cells endogenously expressing human glycine transporter type 1 (Gly-T1); endogenous in cells; host or cells: JAR (human placental choriocarcinoma) cells
T1 sequence (P48067 1-706): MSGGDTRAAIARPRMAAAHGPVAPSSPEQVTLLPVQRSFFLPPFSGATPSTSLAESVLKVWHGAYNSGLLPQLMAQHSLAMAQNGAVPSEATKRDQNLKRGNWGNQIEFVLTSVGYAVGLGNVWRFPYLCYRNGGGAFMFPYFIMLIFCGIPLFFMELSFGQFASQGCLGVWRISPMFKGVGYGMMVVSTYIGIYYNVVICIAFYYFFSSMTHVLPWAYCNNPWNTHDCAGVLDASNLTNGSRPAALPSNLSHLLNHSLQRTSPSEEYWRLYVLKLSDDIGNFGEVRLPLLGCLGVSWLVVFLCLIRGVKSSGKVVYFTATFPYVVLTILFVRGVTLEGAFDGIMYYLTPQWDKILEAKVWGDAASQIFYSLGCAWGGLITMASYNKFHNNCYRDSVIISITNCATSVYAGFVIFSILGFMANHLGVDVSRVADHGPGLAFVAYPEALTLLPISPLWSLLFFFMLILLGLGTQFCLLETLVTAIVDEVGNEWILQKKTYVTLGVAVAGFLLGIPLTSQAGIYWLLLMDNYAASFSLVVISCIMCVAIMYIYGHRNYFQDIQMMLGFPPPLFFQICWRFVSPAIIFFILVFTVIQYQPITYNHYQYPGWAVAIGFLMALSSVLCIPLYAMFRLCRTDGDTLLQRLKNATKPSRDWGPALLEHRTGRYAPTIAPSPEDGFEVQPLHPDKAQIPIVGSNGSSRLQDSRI
Assay: Glycine Transporter 1 (GlyT1) uptake assay, [14C] glycine uptake in JAR cells
Format: cell-based
Details: approximate IC50; inhibition of [14C] glycine (5 μM) uptake, JAR cells endogenously expressing human Gly-T1
Description: This cell-based assay measures the ability of test compounds to inhibit the uptake of glycine by the glycine transporter type 1. Human placental choriocarcinoma (JAR) cells endogenously expressing human glycine transporter type 1 (Gly-T1) were used for this assay. […] Cells were plated at a density of 4×10^4 cells/well and grown at 37° C. in a humidified atmosphere of 5% CO2 for 24 h.
Culture medium was removed from Cytostar plate and JAR cells were incubated with 30 μl of Uptake buffer (120 mM NaCl, 2 mM KCl, 1 mM CaCl2, 1 mM MgCl2, 10 mM Hepes, 5 mM alanine, pH 7.5) with or without compound for 5 min. […] After incubation at room temperature for the desired time usually 1-2 h, sealed 96-well Cytostar plates were counted on a TopCount (Packard).
IC50 curves were generated from the raw data collected from the TopCount and fitted with a four-parameter logistic equation using in-house data analysis tool, Activity Base.

Structure (SMILES) | IC50 [nM]
O=C(O)CN1CCN([C@H](c2ccccc2)c2cccc(C(F)(F)F)c2)CC1 [Cpd 1, (R)-2-(4-(phenyl(3-(trifluoromethyl)phenyl)methyl)piperazin-1-yl)acetic acid] | 79.1
C[C@@H]1CN([C@H](c2ccccc2)c2cccc(Br)c2)CCN1CC(=O)O [Cpd 20, 2-((R)-4-((R)-(3-bromophenyl)(phenyl)methyl)-2-methylpiperazin-1-yl)acetic acid dihydrochloride salt] | 1.51
C[C@@H]1CN([C@H](c2ccccc2)c2cccc(C(F)(F)F)c2)CCN1CC(=O)O [Cpd 24, 2-((R)-2-methyl-4-((R)-phenyl(3-(trifluoromethyl)phenyl)methyl)piperazin-1-yl)acetic acid dihydrochloride salt] | 3.94
C[C@@H]1CN([C@H](c2ccccc2)c2cccc(-c3ccccc3)c2)CCN1CC(=O)O [Cpd 30, [(R)-4-((R)-biphenyl-3-yl-phenyl-methyl)-2-methyl-piperazin-1-yl]-acetic acid] | 0.934
Cc1cccc([C@@H](c2ccccc2)N2CCN(CC(=O)O)[C@H](C)C2)c1 [Cpd 34, 2-((R)-2-methyl-4-((R)-phenyl(m-tolyl)methyl)piperazin-1-yl)acetic acid] | 17.8
Cc1cccc(-c2ccc([C@@H](c3ccccc3)N3CCN(CC(=O)O)[C@H](C)C3)cc2)c1 [Cpd 48, [(R)-2-methyl-4-[(R)-(3′-methyl-biphenyl-4-yl)-phenyl-methyl]-piperazin-1-yl]-acetic acid] | 2.14
Cc1ccc(-c2ccc([C@@H](c3ccccc3)N3CCN(CC(=O)O)[C@H](C)C3)cc2)cc1 [Cpd 49, [(R)-2-methyl-4-[(R)-(4′-methyl-biphenyl-4-yl)-phenyl-methyl]-piperazin-1-yl]-acetic acid] | 7.2
C[C@@H]1CN([C@H](c2ccccc2)c2ccc(C#Cc3ccccc3)cc2)CCN1CC(=O)O [Cpd 55A, 2-((R)-2-methyl-4-((R)-phenyl(4-(2-phenylethynyl)phenyl)methyl)piperazin-1-yl)acetic acid] | 1.5
C[C@@H]1CN(C(c2cccc(C(F)(F)F)c2)C2CC2)CCN1CC(=O)O (stereo partly drawn) [Cpd 77, 2-((R)-4-(cyclopropyl(3-(trifluoromethyl)phenyl)methyl)-2-methylpiperazin-1-yl)acetic acid dihydrochloride salt] | 41.1
C[C@@H]1CN(C(c2ccc(Cl)cc2)c2ccc(Cl)cc2)CCN1CC(=O)O [Cpd 78, (R)-2-(4-(bis(4-chlorophenyl)methyl)-2-methylpiperazin-1-yl)acetic acid] | 4.8
C[C@@H]1CN(C(c2ccc(Cl)cc2)c2ccc(Cl)cc2)CCN1[C@H](C)C(=O)O [Cpd 82, (R)-2-((R)-4-(bis(4-chlorophenyl)methyl)-2-methylpiperazin-1-yl)propanoic acid] | 2200
